In patent US6716833B2, “Acetylenic α-amino acid-based sulfonamide hydroxamic acid tace inhibitors” (priority 1999, dated 2004):
pIC50: −log10 of the molar value. Structures can show the parent of a compound that is named as a salt. Where two headings read alike, the source gives them in different places.

Tests used:
Type in all cases: biochemical
MMP-1 = target: T1, MMP-1 (Homo sapiens, UniProt P03956); test: MMP-1 inhibition (thiopeptide or fluorescent peptide substrate); settings: read-out: MMP-1 IC50
T1 sequence (P03956 100-469): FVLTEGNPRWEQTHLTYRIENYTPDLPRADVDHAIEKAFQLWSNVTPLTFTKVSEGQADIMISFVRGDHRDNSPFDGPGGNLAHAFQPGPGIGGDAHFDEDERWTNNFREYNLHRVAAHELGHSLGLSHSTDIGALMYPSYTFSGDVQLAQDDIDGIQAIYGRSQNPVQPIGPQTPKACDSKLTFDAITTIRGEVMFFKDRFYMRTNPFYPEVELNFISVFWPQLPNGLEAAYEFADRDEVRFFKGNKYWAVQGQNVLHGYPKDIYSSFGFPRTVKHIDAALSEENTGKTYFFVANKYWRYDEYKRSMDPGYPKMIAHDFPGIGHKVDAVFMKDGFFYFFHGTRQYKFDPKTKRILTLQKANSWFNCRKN

MMP-13 = MMP-13 (Homo sapiens, UniProt P45452); test: MMP-13 inhibition (thiopeptide or fluorescent peptide substrate); settings: read-out: MMP-13 IC50
[1] = target: TNF-α converting enzyme (TACE) (Homo sapiens, UniProt P78536); test: TACE inhibition (fluorescent peptidyl substrate); settings: read-out: TACE IC50
Chain of TNF-α converting enzyme (TACE) (P78536 215-824, species assumed): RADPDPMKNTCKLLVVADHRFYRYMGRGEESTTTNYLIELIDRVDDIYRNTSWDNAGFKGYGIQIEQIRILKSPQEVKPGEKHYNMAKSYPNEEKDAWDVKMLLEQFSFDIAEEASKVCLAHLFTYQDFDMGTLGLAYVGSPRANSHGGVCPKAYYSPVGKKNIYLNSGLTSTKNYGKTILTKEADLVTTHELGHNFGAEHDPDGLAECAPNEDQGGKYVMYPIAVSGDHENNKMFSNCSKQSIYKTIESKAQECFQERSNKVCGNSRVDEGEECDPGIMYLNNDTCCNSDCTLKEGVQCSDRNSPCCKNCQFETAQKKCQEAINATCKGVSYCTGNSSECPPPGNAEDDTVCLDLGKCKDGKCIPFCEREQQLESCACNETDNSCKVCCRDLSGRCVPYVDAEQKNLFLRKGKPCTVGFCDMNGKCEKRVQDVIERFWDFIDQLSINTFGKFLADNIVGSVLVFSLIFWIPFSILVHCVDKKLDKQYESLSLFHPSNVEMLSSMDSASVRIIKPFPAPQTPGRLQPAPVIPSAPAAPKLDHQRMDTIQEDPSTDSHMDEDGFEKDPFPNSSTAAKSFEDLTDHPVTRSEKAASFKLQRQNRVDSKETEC

MMP-9 = MMP-9 (Homo sapiens, UniProt P14780); test: MMP-9 inhibition (thiopeptide or fluorescent peptide substrate); settings: read-out: MMP-9 IC50
Chain of MMP-9 (P14780 94-707): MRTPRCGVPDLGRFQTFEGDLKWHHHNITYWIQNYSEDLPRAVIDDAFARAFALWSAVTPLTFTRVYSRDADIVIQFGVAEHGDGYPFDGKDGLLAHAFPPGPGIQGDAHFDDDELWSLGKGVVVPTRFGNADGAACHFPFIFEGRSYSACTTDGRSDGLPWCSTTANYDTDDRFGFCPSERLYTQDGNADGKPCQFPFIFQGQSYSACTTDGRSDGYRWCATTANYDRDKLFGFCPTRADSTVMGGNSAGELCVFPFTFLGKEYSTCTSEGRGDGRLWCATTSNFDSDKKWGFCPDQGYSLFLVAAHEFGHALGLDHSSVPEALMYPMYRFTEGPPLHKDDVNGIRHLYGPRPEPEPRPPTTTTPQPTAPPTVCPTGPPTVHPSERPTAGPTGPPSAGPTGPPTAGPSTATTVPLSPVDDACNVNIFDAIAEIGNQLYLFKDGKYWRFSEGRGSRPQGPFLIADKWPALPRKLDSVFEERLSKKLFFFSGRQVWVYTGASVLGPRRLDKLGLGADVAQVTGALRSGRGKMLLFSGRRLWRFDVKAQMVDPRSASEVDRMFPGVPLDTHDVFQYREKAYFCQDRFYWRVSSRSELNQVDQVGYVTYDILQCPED

| pIC50 (MMP-1) | pIC50 (MMP-13) | pIC50 [1] | pIC50 (MMP-9) | Compound | also measured |
| --- | --- | --- | --- | --- | --- |
| 6.04 | 7.89 | 6.70 | 7.34 | CC#CCOc1ccc(S(=O)(=O)N(C)C(C(=O)NO)c2ccc(OCCCNC(=O)OC(C)(C)C)cc2)cc1 (stereo not drawn) [Example 187, tert-Butyl 3-{4-[1-[{[4-(2-Butynyloxy)phenyl]sulfonyl}(methyl)amino]-2-(hydroxyamino)-2-oxoethyl]phenoxy}propylcarbamate] | – |
| ~5.00 | 6.37 | 7.54 | 6.40 | CC#CCOc1ccc(S(=O)(=O)N(C)CC(=O)NO)cn1 [Example 131, 2-[(6-but-2-ynyloxy-Pyridine-3-sulfonyl)-methyl-amino]-N-hydroxy-acetamide] | – |
| 6.61 | 7.05 | 6.99 | 6.20 | CC#CCOc1ccc(S(=O)(=O)N(CCN2CCOCC2)C(C(=O)NO)C(C)C)cc1 (stereo not drawn) [Example 123, 2-[[[4-(2-Butynyloxy)phenyl]sulfonyl][2-(4-morpholinyl)ethyl]amino]-N-hydroxy-3-methylbutanamide] | – |
| 6.30 | 7.70 | 8.10 | 7.37 | CC#CCOc1ccc(S(=O)(=O)N(C)C(C(=O)NO)c2ccccc2)cc1 (stereo not drawn) [Example 211, 2-[{[4-(2-Butynyloxy)phenyl]sulfonyl}(methyl)amino]-N-hydroxy-2-phenylacetamide] | – |

Second part, the compound before the results:

| Compound | pIC50 (MMP-1) | pIC50 (MMP-13) | pIC50 [1] | pIC50 (MMP-9) | also measured |
| --- | --- | --- | --- | --- | --- |
| CC#CCOc1ccc(S(=O)(=O)N2CCN(C(=O)C3(C)COC(C)(C)OC3)CC2C(=O)NO)cc1 (stereo not drawn) [Example 231, 1-{[4-(2-Butynyloxy)phenyl]sulfonyl}-N-hydroxy-4-[(2,2,5-trimethyl-1,3-dioxan-5-yl)carbonyl]-2-piperazinecarboxamide] | 5.61 | 6.45 | 7.23 | 5.95 | – |
| CC#CCOc1ccc(S(=O)(=O)N2CCS(=O)(=O)C(C)(C)[C@@H]2C(=O)NO)cc1 [Example 257, (3S)-4-{[4-(2-Butynyloxy)phenyl]sulfonyl}-N-hydroxy-2,2-dimethyl-3-thiomorpholine Carboxamide 1,1-Dioxide] | – | – | – | – | pIC50 (MMP-1; Table 9): 7.62; pIC50 (MMP-13; Table 9): 7.64; pIC50 ([1]; Table 9): 7.62; pIC50 (MMP-9; Table 9): 7.19 |
| CC#CCOc1ccc(S(=O)(=O)N2CCN(C)CC2C(=O)NO)cc1 (stereo not drawn) [Example 56, 1-(4-but-2-ynyloxy-Benzenesulfonyl)-4-methyl-piperazine-2-carboxylic Acid Hydroxyamide Hydrochloride] | 5.48 | 6.80 | 7.39 | 6.18 | – |
| CC#CCOc1ccc(S(=O)(=O)N(CC)C(C(=O)NO)C(C)C)cc1 (stereo not drawn) [Example 108, 2-[(4-but-2-ynyloxy-Benzenesulfonyl)-ethyl-amino]-N-hydroxy-3-methyl-butyramide] | 7.04 | 7.17 | 7.48 | 6.92 | – |
| CC1(C)SCCN(S(=O)(=O)c2ccc(OCC#CCCCOC3CCCCO3)cc2)C1C(=O)NO (stereo not drawn) [Example 248, N-Hydroxy-2,2-dimethyl-4-[(4-{[6-(tetrahydro-2H-pyran-2-yloxy)-2-hexynyl]oxy}phenyl)sulfonyl]-3-thiomorpholine Carboxamide] | – | – | – | – | pIC50 (MMP-1; Table 10): 7.01; pIC50 (MMP-13; Table 10): 8.14; pIC50 ([1]; Table 10): 7.04; pIC50 (MMP-9; Table 10): 7.32 |
| CC#CCOc1ccc(S(=O)(=O)N2CCN(C(=O)Nc3ccc(F)cc3)CC2C(=O)NO)cc1 (stereo not drawn) [Example 222, 4-{[4-(2-Butynyloxy)phenyl]sulfonyl}-N-1-(4-fluorophenyl)-N-3-hydroxy-1,3-piperazinedicarboxamide] | 6.03 | 7.12 | 7.52 | 6.76 | – |
| CN(CC#CCOc1ccc(S(=O)(=O)N2CCSC(C)(C)C2C(=O)NO)cc1)C(=O)OC(C)(C)C (stereo not drawn) [Example 267, tert-Butyl 4-[4-({3-[(Hydroxyamino)carbonyl]-2,2-dimethyl-4-thiomorpholinyl}sulfonyl)phenoxy]-2-butynyl(methyl)carbamate] | – | – | – | – | pIC50 (MMP-1; Table 10): 6.44; pIC50 (MMP-13; Table 10): 7.43; pIC50 ([1]; Table 10): 6.95; pIC50 (MMP-9; Table 10): 5.90 |
| CC#CCOc1ccc(S(=O)(=O)N(CCCCN(CC)CC)C(C(=O)NO)C(C)C)cc1 (stereo not drawn) [Example 121, 2-{{[4-(2-Butynyloxy)phenyl]sulfonyl}[4-(diethylamino)butyl]amino}-N-hydroxy-3-methylbutanamide] | 6.92 | 6.94 | 6.75 | 6.59 | – |
| CC1(C)SCCN(S(=O)(=O)c2ccc(OCC#CCCCO)cc2)C1C(=O)NO (stereo not drawn) [Example 249, N-Hydroxy-4-({4-[(6-hydroxy-2-hexynyl)oxy]phenyl}sulfonyl)-2,2-dimethyl-3-thiomorpholine Carboxamide] | – | – | – | – | pIC50 (MMP-1; Table 10): 6.80; pIC50 (MMP-13; Table 10): 7.07; pIC50 ([1]; Table 10): 7.40; pIC50 (MMP-9; Table 10): 6.42 |
| CC#CCOc1ccc(S(=O)(=O)N(CC2CC2)C(C(=O)NO)C(C)C)cc1 (stereo not drawn) [Example 112, 2-[(4-but-2-ynyloxy-Benzenesulfonyl)-cyclopropylmethyl-amino]-N-hydroxy-3-methyl-butyramide] | 6.72 | 6.85 | 7.24 | 6.40 | – |
| CCCCC#CCOc1ccc(S(=O)(=O)N2CCSC(C)(C)C2C(=O)NO)cc1 (stereo not drawn) [Example 40, 4-(4-hept-2-ynyloxy-Benzenesulfonyl)-2,2-dimethyl-thiomorpholine-3-carboxylic Acid Hydroxyamide] | – | – | – | – | pIC50 (MMP-1; Table 9): 7.54; pIC50 (MMP-13; Table 9): 8.18; pIC50 ([1]; Table 9): 7.64; pIC50 (MMP-9; Table 9): 8.11 |
| CC#CCOc1ccc(S(=O)(=O)N2CCN(C(=O)Nc3cc(Cl)cc(Cl)c3)CC2C(=O)NO)cc1 (stereo not drawn) [Example 223, 4-{[4-(2-Butynyloxy)phenyl]sulfonyl}-N-1-(3,5-dichlorophenyl)-N-3-hydroxy-1,3-piperazinedicarboxamide] | 5.77 | 6.82 | 7.08 | 6.19 | – |
| CC1(C)SCCN(S(=O)(=O)c2ccc(OCC#CCCN)cc2)C1C(=O)NO (stereo not drawn) [Example 246, 4-({4-[(5-Amino-2-pentynyl)oxy]phenyl}sulfonyl)-N-hydroxy-2,2-dimethyl-3-thiomorpholine Carboxamide] | – | – | – | – | pIC50 (MMP-1; Table 10): 5.98; pIC50 (MMP-13; Table 10): 7.57; pIC50 ([1]; Table 10): 6.86; pIC50 (MMP-9; Table 10): 7.39 |
| C#CCN(C(C(=O)NO)C(C)C)S(=O)(=O)c1ccc(OCC#CC)cc1 (stereo not drawn) [Example 109, 2-[{[4-(2-Butynyloxy)phenyl]sulfonyl}(2-propynyl)amino]-N-hydroxy-3-methylbutanamide] | 6.68 | 7.28 | 7.26 | 6.63 | – |
| CC1(C)SCCN(S(=O)(=O)c2ccc(OCC#CCOCc3ccccc3)cc2)C1C(=O)NO (stereo not drawn) [Example 247, 4-[(4-{[4-(Benzyloxy)-2-butynyl]oxy}phenyl)sulfonyl]-N-hydroxy-2,2-dimethyl-3-thiomorpholine Carboxamide] | – | – | – | – | pIC50 (MMP-1; Table 10): 7.28; pIC50 (MMP-13; Table 10): 8.60; pIC50 ([1]; Table 10): 6.80; pIC50 (MMP-9; Table 10): 6.97 |
| CC#CCOc1ccc(S(=O)(=O)N(CC(C)C)C(C(=O)NO)C(C)C)cc1 (stereo not drawn) [Example 113, 2-[(4-but-2-ynyloxy-Benzenesulfonyl)-isobutyl-amino]-N-hydroxy-3-methyl-butyramide] | 6.52 | 6.51 | 6.97 | 6.04 | – |
| CC#CCOc1ccc(S(=O)(=O)N2CCN(C(=O)N3CCOCC3)CC2C(=O)NO)cc1 (stereo not drawn) [Example 215, 1-(4-but-2-ynyloxy-Benzenesulfonyl)-4-(morpholine-4-carbonyl)-piperazine-2-carboxylic Acid Hydroxyamide] | 6.16 | 7.41 | 7.46 | 7.22 | – |
